From ChEMBL document CHEMBL1212883, “Limonoids from the leaves of Cipadessa baccifera” (J Nat Prod, 2010)

Columns and labels:
Assay type in all cases: functional, cell-based
HL-60 = test: Cytotoxicity against human HL60 cells after 72 hrs by MTT assay; conditions: HL-60, 72 h
SMMC-7721 = test: Cytotoxicity against human SMMC7721 cells after 72 hrs by MTT assay; conditions: SMMC-7721, 72 h
A549 = test: Cytotoxicity against human A549 cells after 72 hrs by MTT assay; conditions: A549, 72 h
MCF7 = test: Cytotoxicity against human MCF7 cells after 72 hrs by MTT assay; conditions: MCF7, 72 h
SW480 = test: Cytotoxicity against human SW480 cells after 72 hrs by MTT assay; conditions: SW480, 72 h

CC(=O)O[C@H]1C[C@@H](OC(C)=O)[C@@]2(C)CO[C@H]3[C@@H](O)[C@]4(C)[C@H](CC[C@@]5(C)[C@H](c6ccoc6)OC(=O)[C@@H]6O[C@]645)[C@]1(C)[C@@H]32 [CIPADESIN J]
IC50 (HL-60): > 40 µM
IC50 (SMMC-7721): 20.4 µM
IC50 (A549): > 40 µM
IC50 (MCF7): > 40 µM
IC50 (SW480): 20.2 µM

CCC(C)C(=O)O[C@@H]1[C@@H]2OC[C@]3(C)[C@H](OC(C)=O)C[C@H](OC(C)=O)[C@](C)([C@H]4CC[C@@]5(C)[C@H](c6ccoc6)OC(=O)[C@@H]6O[C@@]65[C@]14C)[C@@H]23 (stereo not given in full) [CIPADESIN K]
IC50 (HL-60): > 40 µM
IC50 (SMMC-7721): > 40 µM
IC50 (A549): > 40 µM
IC50 (MCF7): > 40 µM
IC50 (SW480): 36.6 µM

CCC(C)C(=O)O[C@@H]1[C@@H]2OC[C@]3(C)[C@H](OC(C)=O)C[C@H](OC(C)=O)[C@@](C)([C@@H]23)[C@H]2CC[C@]3(C)C(=CC(=O)[C@H]3c3ccoc3)[C@]12C (stereo not given in full) [CIPADESIN L]
IC50 (HL-60): > 40 µM
IC50 (SMMC-7721): > 40 µM
IC50 (A549): > 40 µM
IC50 (MCF7): > 40 µM
IC50 (SW480): > 40 µM

CCC(C)C(=O)O[C@@H]1[C@@H]2OC[C@]3(C)[C@H](OC(C)=O)C[C@H](OC(C)=O)[C@](C)([C@H]4CC[C@@]5(C)[C@H](c6ccoc6)C(=O)[C@@H]6O[C@@]65[C@]14C)[C@@H]23 (stereo not given in full) [CIPADESIN M]
IC50 (HL-60): > 40 µM
IC50 (SMMC-7721): > 40 µM
IC50 (A549): > 40 µM
IC50 (MCF7): > 40 µM
IC50 (SW480): > 40 µM

CCC(C)C(=O)O[C@H]1C(C)(C)[C@H](CC(=O)OC)[C@]2(C)C(=O)[C@@]1(O)CC1=C3CC(=O)O[C@@H](c4ccoc4)[C@]3(C)CC[C@@H]12 (stereo not given in full) [CIPADESIN N]
IC50 (HL-60): > 40 µM
IC50 (SMMC-7721): > 40 µM
IC50 (A549): > 40 µM
IC50 (MCF7): > 40 µM
IC50 (SW480): > 40 µM

CCC(C)C(=O)O[C@@H]1[C@H]2C(=O)[C@](C)(C3=CC[C@]4(C)[C@@H](CC(=O)O[C@H]4c4ccoc4)[C@]34O[C@H]24)[C@@H](CC(=O)OC)C1(C)C (stereo not given in full) [CIPADESIN O]
IC50 (HL-60): > 40 µM
IC50 (SMMC-7721): > 40 µM
IC50 (A549): > 40 µM
IC50 (MCF7): > 40 µM
IC50 (SW480): > 40 µM

C=C1[C@]2(O)C(=O)C[C@@]3(C)[C@H](c4ccoc4)OC(=O)C[C@]13O[C@H]1[C@@H](OC(C)=O)[C@@H](OC(C)=O)C(C)(C)[C@H](CC(=O)OC)[C@]12C [CIPADESIN P]
IC50 (HL-60): > 40 µM
IC50 (SMMC-7721): > 40 µM
IC50 (A549): > 40 µM
IC50 (MCF7): > 40 µM
IC50 (SW480): > 40 µM

C=C1[C@]2(O)CC[C@@]3(C)[C@H](c4ccoc4)OC(=O)C[C@]13O[C@H]1C[C@@H](OC(C)=O)C(C)(C)[C@H](CC(=O)OC)[C@]12C [CIPADESIN Q]
IC50 (HL-60): > 40 µM
IC50 (SMMC-7721): > 40 µM
IC50 (A549): > 40 µM
IC50 (MCF7): > 40 µM
IC50 (SW480): > 40 µM
